Data: ChEMBL document CHEMBL5316313, “Discovery of Novel 3-Phenylpiperidine Derivatives Targeting the β-Catenin/B-Cell Lymphoma 9 Interaction as a Single Agent and in Combination with the Anti-PD-1 Antibody for the Treatment of Colorectal Cancer” (J Med Chem, 2023)
Calls of active or inactive are those of the source. No cut-off for these calls is given here.

Columns and labels:
[1] = Toxicity in BALB/c mouse xenografted with mouse CT26 cells assessed as pathological changes in heart at 30 mg/kg, ip QD by hematoxylin and eosin staining based microscopic analysis; format: organism-based; conditions: in vivo
[2] = Toxicity in BALB/c mouse xenografted with mouse CT26 cells assessed as pathological changes in kidney at 30 mg/kg, ip QD by hematoxylin and eosin staining based microscopic analysis; format: organism-based; conditions: in vivo
CT26 = assay: Synergistic antitumor activity in mouse CT26 cells xenografted in BALB/c mouse assessed as decrease in Foxp3 expression in Treg tumor cells at 30 mg/kg, ip QD in presence of anti-PD-1 antibody cotreatment at 10 mg/kg,ip BIW by qRT-PCR analysis; format: functional, organism-based
HEK293 [3] = assay: Induction of apoptosis in Wnt-independent human HEK293 cells assessed as late apoptotic cells at 20 uM incubated for 24 hrs by Annexin V-Alexa Fluor 647/PI staining based flow cytomtery (Rvb=10.5%); format: functional
HEK293 [4] = assay: Induction of apoptosis in Wnt-independent human HEK293 cells assessed as necrotic cells at 10 uM incubated for 24 hrs by Annexin V-Alexa Fluor 647/PI staining based flow cytomtery (Rvb=1.82%); format: functional
EL4 = assay: Cytotoxicity against CFSE labeled SIINFEKL activated OT-1 mouse derived EL4 cells assessed as change in antigen specific cell viability at 1 to 10 uM preincubated with compound for 24 hrs followed by co-cultured with C57BL/6 mouse splenocyte derived CD8+ T cells in presence of anti-PD-1 antibody cotreatment by flow cytometry; format: functional, cell-based; conditions: dose 1-10 µM
[5] = Microsomal stability in mouse liver microsomes assessed as half life at […] and measured upto 60 mins by LC-MS/MS analysis; format: ADME, Microsome
[6] = target: T1, beta-catenin-B-cell lymphoma 9 protein complex (Homo sapiens, UniProt P35222); assay: Inhibition of beta-catenin/BCL9 protein-protein interaction in Wnt-independent human A549 cells assessed as reduction in Axin2 expression level by qRT-PCR assay; format: cell-based
T1 sequence (P35222 whole entry): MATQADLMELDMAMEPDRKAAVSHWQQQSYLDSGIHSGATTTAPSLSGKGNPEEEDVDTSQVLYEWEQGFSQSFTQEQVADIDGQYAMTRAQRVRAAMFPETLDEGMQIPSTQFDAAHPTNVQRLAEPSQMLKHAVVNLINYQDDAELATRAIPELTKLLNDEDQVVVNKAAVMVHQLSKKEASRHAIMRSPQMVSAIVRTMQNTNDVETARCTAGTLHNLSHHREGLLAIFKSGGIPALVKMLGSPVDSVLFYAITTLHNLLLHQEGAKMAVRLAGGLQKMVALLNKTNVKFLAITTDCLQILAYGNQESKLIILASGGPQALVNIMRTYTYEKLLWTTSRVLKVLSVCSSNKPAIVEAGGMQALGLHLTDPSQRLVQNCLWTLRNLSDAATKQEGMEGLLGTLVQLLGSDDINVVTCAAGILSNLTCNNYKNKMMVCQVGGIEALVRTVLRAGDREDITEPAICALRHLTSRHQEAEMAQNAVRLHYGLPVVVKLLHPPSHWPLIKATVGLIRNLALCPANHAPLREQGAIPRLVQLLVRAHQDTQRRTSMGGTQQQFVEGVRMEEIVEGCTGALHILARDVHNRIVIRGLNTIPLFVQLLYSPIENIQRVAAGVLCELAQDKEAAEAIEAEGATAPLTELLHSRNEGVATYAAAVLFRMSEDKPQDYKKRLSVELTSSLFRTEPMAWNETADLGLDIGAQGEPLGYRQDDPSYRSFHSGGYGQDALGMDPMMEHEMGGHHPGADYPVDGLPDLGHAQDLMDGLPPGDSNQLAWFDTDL
T1 sequence (O00512 whole entry): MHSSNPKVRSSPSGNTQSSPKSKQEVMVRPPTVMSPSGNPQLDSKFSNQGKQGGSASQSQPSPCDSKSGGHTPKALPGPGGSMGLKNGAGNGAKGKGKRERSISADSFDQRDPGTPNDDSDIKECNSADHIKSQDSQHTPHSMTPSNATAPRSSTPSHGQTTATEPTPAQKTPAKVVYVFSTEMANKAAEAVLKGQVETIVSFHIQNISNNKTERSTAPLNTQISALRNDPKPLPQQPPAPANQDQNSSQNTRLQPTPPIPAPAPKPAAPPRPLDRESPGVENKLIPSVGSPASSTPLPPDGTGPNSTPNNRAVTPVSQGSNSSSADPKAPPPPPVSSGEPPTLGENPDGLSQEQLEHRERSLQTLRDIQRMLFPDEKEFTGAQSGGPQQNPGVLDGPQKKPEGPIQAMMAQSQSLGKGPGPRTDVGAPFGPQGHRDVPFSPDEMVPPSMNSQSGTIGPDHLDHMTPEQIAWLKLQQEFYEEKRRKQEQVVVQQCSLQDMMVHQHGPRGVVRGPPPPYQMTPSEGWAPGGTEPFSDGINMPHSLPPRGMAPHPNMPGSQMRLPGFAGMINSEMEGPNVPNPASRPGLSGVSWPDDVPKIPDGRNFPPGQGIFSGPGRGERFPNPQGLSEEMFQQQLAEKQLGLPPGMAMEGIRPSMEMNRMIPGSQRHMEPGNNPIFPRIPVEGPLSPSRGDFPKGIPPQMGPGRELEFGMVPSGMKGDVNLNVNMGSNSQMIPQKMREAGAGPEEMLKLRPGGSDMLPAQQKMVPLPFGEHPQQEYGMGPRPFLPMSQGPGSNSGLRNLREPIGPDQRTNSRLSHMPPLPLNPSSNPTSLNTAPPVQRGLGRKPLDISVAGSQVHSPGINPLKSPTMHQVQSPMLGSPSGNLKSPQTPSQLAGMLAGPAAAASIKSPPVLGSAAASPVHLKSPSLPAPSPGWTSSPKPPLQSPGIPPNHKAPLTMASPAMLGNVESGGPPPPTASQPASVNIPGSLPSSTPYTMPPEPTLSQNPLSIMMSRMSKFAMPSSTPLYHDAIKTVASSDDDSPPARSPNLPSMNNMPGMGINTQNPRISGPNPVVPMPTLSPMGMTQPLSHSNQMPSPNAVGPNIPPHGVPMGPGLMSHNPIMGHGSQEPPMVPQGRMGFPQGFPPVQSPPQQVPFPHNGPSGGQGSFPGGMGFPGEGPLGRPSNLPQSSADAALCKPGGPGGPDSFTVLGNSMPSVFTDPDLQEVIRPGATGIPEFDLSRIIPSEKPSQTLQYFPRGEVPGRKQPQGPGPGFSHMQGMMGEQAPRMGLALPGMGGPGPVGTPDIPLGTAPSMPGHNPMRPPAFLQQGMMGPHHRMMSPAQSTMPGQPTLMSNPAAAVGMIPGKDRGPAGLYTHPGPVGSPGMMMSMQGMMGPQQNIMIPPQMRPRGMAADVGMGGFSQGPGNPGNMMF

half-life [5] [min] | IC50 [6] [µM] | SMILES | Activity [1] | Activity [2] | Activity (CT26) | Activity (HEK293 [3]) [%] | Activity (HEK293 [4]) [%] | Activity (EL4)
20.9 |  | CC(C)c1ccc(-c2cccc(S(=O)(=O)N3CCCC(c4cccc(OC(C)(C)C(=O)NS(=O)(=O)c5ccc(C(F)(F)F)cc5)c4)C3)c2)cc1 (stereo not drawn) | Non-Toxic | Non-Toxic | Active | 16.6 | 2.28 | Dose-Dependent Effect
 | 24.7 | O=C1[C@H](Cc2ccc(O)cc2)N2C(=O)CCN(C(=O)NCc3ccccc3)[C@H]2CN1Cc1cccc2ccccc12 |  |  |  |  |  | 
